Assay results from patent US10597388B2, “Pyridazinone herbicides” (FMC CORPORATION, priority 2014, dated 2020).

Key:
Assay in all cases: Test D controlled growth environment herbicide test, pre- and postemergence
Assay type in all cases: in vivo
[1] = tested on: barley, spring (spring barley, Hordeum vulgare)
Procedure, shortened: (§1)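 Rating is visual, 0–100 scale (100 = complete control), made against untreated plants 14–21 d after treatment in controlled growth conditions. Postemergence sprays went onto 1- to 4-leaf plants in peat medium; preemergence sprays onto silt loam after sowing; formulation included a surfactant.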

[2] = tested on: blackgrass (Alopecurus myosuroides)
Procedure, shortened: as §1

[3] = tested on: bromegrass, downy (downy bromegrass, Bromus tectorum)
Procedure, shortened: as §1

[4] = tested on: canarygrass (Phalaris minor)
Procedure, shortened: as §1

[5] = tested on: chamomile (scentless chamomile, Matricaria inodora)
Procedure, shortened: as §1

[6] = tested on: chickweed (common chickweed, Stellaria media)
Procedure, shortened: as §1

[7] = tested on: deadnettle (henbit deadnettle, Lamium amplexicaule)
Procedure, shortened: as §1

[8] = tested on: field poppy (Papaver rhoeas)
Procedure, shortened: as §1

[9] = tested on: foxtail, green (green foxtail, Setaria viridis)
Procedure, shortened: as §1

[10] = tested on: galium (catchweed bedstraw, Galium aparine)
Procedure, shortened: as §1

[11] = tested on: kochia (Kochia scoparia)
Procedure, shortened: as §1

[12] = tested on: lambsquarters (Chenopodium album)
Procedure, shortened: as §1

[13] = tested on: oilseed rape (Brassica napus)
Procedure, shortened: as §1

[14] = tested on: wheat, spring (spring wheat, Triticum aestivum)
Procedure, shortened: as §1

[15] = Postemergence, 31 g ai/ha, scale 0 to 100 (0 no effect, 100 complete control)
[16] = Postemergence, 125 g ai/ha, visual rating on scale 0 (no effect) to 100 (complete control), 14 to 21 d
[17] = Postemergence, 250 g ai/ha, scale 0 to 100 (0 no effect, 100 complete control)
[18] = Preemergence, 62 g ai/ha, scale 0 to 100 (0 no effect, 100 complete control)
[19] = Preemergence, 125 g ai/ha, scale 0 to 100 (0 no effect, 100 complete control)
[20] = Preemergence, 250 g ai/ha, scale 0 to 100, 0 no effect, 100 complete control
[21] = postemergence, 62 g ai/ha, scale 0 to 100, 0 no effect, 100 complete control

Cc1nn(C)c(=O)c(-c2ccc(Br)c3ccccc23)c1O [Compound 75]
Barley, Spring plant response rating [1, 15]: 0
Plant response rating, Barley, Spring [1, 16]: 0
Plant response rating, Barley, Spring [1, 17]: 0
Plant response rating (scale of 0 to 100), Barley, Spring ([1]; Preemergence, 31 g ai/ha): 0
Plant response rating, Barley, Spring [1, 18]: 0
Plant response rating, Barley, Spring [1, 19]: 0
Plant response rating, Barley, Spring [1, 20]: 0
Plant response rating, Barley, Spring [1, 21]: 0
Blackgrass plant response rating [2, 15]: 15
Plant response rating, Blackgrass [2, 16]: 65
Plant response rating, Blackgrass [2, 17]: 70
Plant response rating (scale of 0 to 100), Blackgrass ([2]; Preemergence, 31 g ai/ha): 15
Plant response rating, Blackgrass [2, 18]: 30
Plant response rating, Blackgrass [2, 19]: 40
Plant response rating, Blackgrass [2, 20]: 55
Plant response rating, Blackgrass [2, 21]: 20
Bromegrass, Downy plant response rating [3, 15]: 0
Plant response rating, Bromegrass, Downy [3, 16]: 15
Plant response rating, Bromegrass, Downy [3, 17]: 30
Plant response rating (scale of 0 to 100), Bromegrass, Downy ([3]; Preemergence, 31 g ai/ha): 0
Plant response rating, Bromegrass, Downy [3, 18]: 0
Plant response rating, Bromegrass, Downy [3, 19]: 10
Plant response rating, Bromegrass, Downy [3, 20]: 25
Plant response rating, Bromegrass, Downy [3, 21]: 0
Canarygrass plant response rating [4, 15]: 15
Plant response rating, Canarygrass [4, 16]: 30
Plant response rating, Canarygrass [4, 17]: 50
Plant response rating (scale of 0 to 100), Canarygrass ([4]; Preemergence, 31 g ai/ha): 20
Plant response rating, Canarygrass [4, 18]: 55
Plant response rating, Canarygrass [4, 19]: 70
Plant response rating, Canarygrass [4, 20]: 75
Plant response rating, Canarygrass [4, 21]: 15
Chamomile plant response rating [5, 15]: 80
Plant response rating, Chamomile [5, 16]: 85
Plant response rating, Chamomile [5, 17]: 100
Plant response rating, Chamomile [5, 21]: 90
Chickweed plant response rating [6, 15]: 100
Plant response rating, Chickweed [6, 16]: 100
Plant response rating, Chickweed [6, 17]: 100
Plant response rating (scale of 0 to 100), Chickweed ([6]; Preemergence, 31 g ai/ha): 90
Plant response rating, Chickweed [6, 18]: 100
Plant response rating, Chickweed [6, 19]: 95
Plant response rating, Chickweed [6, 20]: 100
Plant response rating, Chickweed [6, 21]: 100
Deadnettle plant response rating [7, 15]: 75
Plant response rating, Deadnettle [7, 16]: 95
Plant response rating, Deadnettle [7, 17]: 100
Plant response rating (scale of 0 to 100), Deadnettle ([7]; Preemergence, 31 g ai/ha): 30
Plant response rating, Deadnettle [7, 18]: 55
Plant response rating, Deadnettle [7, 19]: 90
Plant response rating, Deadnettle [7, 20]: 100
Plant response rating, Deadnettle [7, 21]: 90
Field Poppy plant response rating [8, 15]: 100
Plant response rating, Field Poppy [8, 16]: 100
Plant response rating, Field Poppy [8, 17]: 100
Plant response rating (scale of 0 to 100), Field Poppy ([8]; Preemergence, 31 g ai/ha): 0
Plant response rating, Field Poppy [8, 18]: 95
Plant response rating, Field Poppy [8, 19]: 100
Plant response rating, Field Poppy [8, 20]: 100
Plant response rating, Field Poppy [8, 21]: 100
Foxtail, Green plant response rating [9, 15]: 0
Plant response rating, Foxtail, Green [9, 16]: 55
Plant response rating, Foxtail, Green [9, 17]: 60
Plant response rating (scale of 0 to 100), Foxtail, Green ([9]; Preemergence, 31 g ai/ha): 15
Plant response rating, Foxtail, Green [9, 18]: 35
Plant response rating, Foxtail, Green [9, 19]: 55
Plant response rating, Foxtail, Green [9, 20]: 100
Plant response rating, Foxtail, Green [9, 21]: 25
Galium plant response rating [10, 15]: 90
Plant response rating, Galium [10, 16]: 95
Plant response rating, Galium [10, 17]: 100
Plant response rating (scale of 0 to 100), Galium ([10]; Preemergence, 31 g ai/ha): 15
Plant response rating, Galium [10, 18]: 50
Plant response rating, Galium [10, 19]: 60
Plant response rating, Galium [10, 20]: 80
Plant response rating, Galium [10, 21]: 95
Kochia plant response rating [11, 15]: 95
Plant response rating, Kochia [11, 16]: 100
Plant response rating, Kochia [11, 17]: 100
Plant response rating (scale of 0 to 100), Kochia ([11]; Preemergence, 31 g ai/ha): 65
Plant response rating, Kochia [11, 18]: 80
Plant response rating, Kochia [11, 19]: 80
Plant response rating, Kochia [11, 20]: 100
Plant response rating, Kochia [11, 21]: 100
Lambsquarters plant response rating [12, 15]: 100
Plant response rating, Lambsquarters [12, 16]: 100
Plant response rating, Lambsquarters [12, 17]: 100
Plant response rating (scale of 0 to 100), Lambsquarters ([12]; Preemergence, 31 g ai/ha): 95
Plant response rating, Lambsquarters [12, 18]: 95
Plant response rating, Lambsquarters [12, 19]: 100
Plant response rating, Lambsquarters [12, 20]: 100
Plant response rating, Lambsquarters [12, 21]: 100
Oilseed Rape plant response rating [13, 15]: 70
Plant response rating, Oilseed Rape [13, 16]: 95
Plant response rating, Oilseed Rape [13, 17]: 100
Plant response rating (scale of 0 to 100), Oilseed Rape ([13]; Preemergence, 31 g ai/ha): 50
Plant response rating, Oilseed Rape [13, 18]: 75
Plant response rating, Oilseed Rape [13, 19]: 100
Plant response rating, Oilseed Rape [13, 20]: 100
Plant response rating, Oilseed Rape [13, 21]: 95
Wheat, Spring plant response rating [14, 15]: 0
Plant response rating, Wheat, Spring [14, 16]: 5
Plant response rating, Wheat, Spring [14, 17]: 15
Plant response rating (scale of 0 to 100), Wheat, Spring ([14]; Preemergence, 31 g ai/ha): 0
Plant response rating, Wheat, Spring [14, 18]: 25
Plant response rating, Wheat, Spring [14, 19]: 35
Plant response rating, Wheat, Spring [14, 20]: 45
Plant response rating, Wheat, Spring [14, 21]: 0
